This is an account of results in US11542274B1, “Therapeutic compounds and methods of use thereof” (AGENCY FOR SCIENCE, TECHNOLOGY AND RESEARCH (A*STAR), priority 2019, dated 2023).

The structures appear in SMILES notation.

One may read the IC50 as the concentration that inhibits the measured activity by half.

For this assay, the target named is truncated CRBN (319-427) (Homo sapiens (Human), UniProt Q96SW2). Put plainly: Fluorescence binding assay (fluorescence quenching), affinity to E3-CEREBLON (CRBN)-ubiquitin ligase. Particulars: ubiquitination moiety, pH 6.5. The method, then: Fluorescence quenching end point measurements were performed in black polystyrene 384-plates on Tecan Safire monochromator reader with the following settings: excitation 280 nm; excitation bandwidth 10.0 nm; emission collection 340 nm; emission bandwidth 20.0 nm; high sensitivity flash mode; integration time 40 μS; delay 0 μm. All measurements were done in duplicates; GraphPad Prism 5.03 was used for data evaluation, curve fitting, plotting and determination of IC50 values.
truncated CRBN (319-427), sequence (Q96SW2 319-427): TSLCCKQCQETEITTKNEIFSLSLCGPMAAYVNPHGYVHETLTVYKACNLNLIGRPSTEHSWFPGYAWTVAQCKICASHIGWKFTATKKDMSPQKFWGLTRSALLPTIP
Serial dilutions of each tested ligands were mixed with truncated CRBN (319-427) to a final volume of 25 μL in the assay buffer (20 mM sodium phosphate buffer, pH 6.5, with 150 mM sodium chloride). The final concentration of CRBN in all assay will be 5-10 μM with DMSO level at 4%. A control lanes were prepared with only tested ligands without the addition of CRBN, top up with assay buffer to 25 μL. Plates were incubated for 5 minutes and analyzed using the monochromator plate reader.
IC50 is the compound concentration that causes 50% quenching of the desired activity.
Consider `O=C1Cc2ccc(-c3ccncc3)cc2N1` [Compound 002, 6-(pyridin-4-yl)indolin-2-one], for which the IC50 was in the range of 100 to 300 µM.

For `O=C1Cc2ccc(-c3cccnc3)cc2N1` [Compound 003, 6-(pyridin-3-yl)indolin-2-one], the concentration for half-maximal inhibition (IC50) was over 300 µM.

Turning to `O=C1Cc2ccc(-c3ccccn3)cc2N1` [Compound 004, 6-(pyridin-2-yl)indolin-2-one], the IC50 fell in the range of 100 to 300 µM.

Consider `Cc1cc(-c2ccc3c(c2)NC(=O)C3)ccn1` [Compound 005, 6-(2-methylpyridin-4-yl)indolin-2-one], for which the IC50 fell in the range of 100 to 300 µM.

In the case of `Cc1cnccc1-c1ccc2c(c1)NC(=O)C2` [Compound 006, 6-(3-methylpyridin-4-yl)indolin-2-one], the IC50 is over 300 µM.

In turn, `CC1C(=O)Nc2cc(-c3ccncc3)ccc21` (stereo not drawn) [Compound 007, 3-methyl-6-(pyridin-4-yl)indolin-2-one] came in with an IC50 of 100 to 300 µM.

With `CN1C(=O)Cc2ccc(-c3ccncc3)cc21` [Compound 008, 1-methyl-6-(pyridin-4-yl)indolin-2-one], the IC50 is over 300 µM.

`O=C1Cc2ccc(-c3ccnc(Cl)c3)cc2N1` [Compound 009, 6-(2-chloropyridin-4-yl)indolin-2-one] had an IC50 of over 300 µM.

`COc1cc(-c2ccc3c(c2)NC(=O)C3)ccn1` [Compound 010, 6-(2-methoxypyridin-4-yl)indolin-2-one] came in with an IC50 of 100 to 300 µM.

As to `CCOC(=O)c1cc(-c2ccc3c(c2)NC(=O)C3)ccn1` [Compound 014, ethyl 4-(2-oxoindolin-6-yl)picolinate], the IC50 is 100 to 300 µM.

In turn, `Cn1cc(-c2ccc3c(c2)NC(=O)C3)cn1` [Compound 015, 6-(1-methyl-1H-pyrazol-4-yl)indolin-2-one] came in with an IC50 of over 300 µM.

In turn, `O=C1Cc2ccc(-c3ccc4[nH]ccc4c3)cc2N1` [Compound 016, 6-(1H-indol-5-yl)indolin-2-one] yielded an IC50 of over 300 µM.

`O=C1Cc2ccc(-c3cnc4[nH]ccc4c3)cc2N1` [Compound 017, 6-(1H-pyrrolo[2,3-b]pyridin-5-yl)indolin-2-one] displayed an IC50 of over 300 µM.

As to `O=C1Cc2ccc(-c3ccc(CN4CCNCC4)cc3)cc2N1` [Compound 018, 6-(4-(piperazin-1-ylmethyl)phenyl)indolin-2-one], the IC50 was in the range of 1 to 100 µM.

With `O=C1Cc2ccc(-c3cccc(CN4CCNCC4)c3)cc2N1` [Compound 019, 6-(3-(piperazin-1-ylmethyl)phenyl)indolin-2-one], the IC50 was over 300 µM.

Consider `O=C1Cc2ccc(-c3ccc(C(=O)N4CCNCC4)cc3)cc2N1` [Compound 020, 6-(4-(piperazine-1-carbonyl)phenyl)indolin-2-one], for which the IC50 is over 300 µM.

`O=C1Cc2ccc(-c3cccc(C(=O)N4CCNCC4)c3)cc2N1` [Compound 021, 6-(3-(piperazine-1-carbonyl)phenyl)indolin-2-one]: the IC50 was over 300 µM.

In turn, `CNC(=O)c1ccc(-c2ccc3c(c2)NC(=O)C3)cc1` [Compound 022, N-methyl-4-(2-oxoindolin-6-yl)benzamide] returned an IC50 of 1 to 100 µM.

`CNC(=O)c1cccc(-c2ccc3c(c2)NC(=O)C3)c1` [Compound 023, N-methyl-3-(2-oxoindolin-6-yl)benzamide]: the IC50 was in the range of 1 to 100 µM.

`O=C1Cc2ccc(C(=O)Nc3ccccc3)cc2N1` [Compound 024, 2-oxo-N-phenylindoline-6-carboxamide] returned an IC50 of over 300 µM.

`O=C1Cc2ccc(C(=O)NC3CCCCC3)cc2N1` [Compound 025, N-cyclohexyl-2-oxoindoline-6-carboxamide]: the IC50 was over 300 µM.

`CN1CCC(NC(=O)c2ccc3c(c2)NC(=O)C3)CC1` [Compound 027, N-(1-methylpiperidin-4-yl)-2-oxoindoline-6-carboxamide] showed an IC50 of over 300 µM.

Molecule `CN1CCN(CCNC(=O)c2ccc3c(c2)NC(=O)C3)CC1` [Compound 028] yielded an IC50 of over 300 µM.

As to `O=C1Cc2ccc(C(=O)N3CCCCC3)cc2N1` [Compound 029, 6-(piperidine-1-carbonyl)indolin-2-one], the IC50 was over 300 µM.

Turning to `O=C1Cc2cc(Cl)c(C(=O)N3CCCCC3)cc2N1` [Compound 030, 5-chloro-6-(piperidine-1-carbonyl)indolin-2-one], the IC50 was over 300 µM.

The molecule `O=C1Cc2ccc(C(=O)Nc3ccncc3)cc2N1` [Compound 031, 2-oxo-N-(pyridin-4-yl)indoline-6-carboxamide] came in with an IC50 of 100 to 300 µM.

In turn, `O=C1Cc2ccc(NC(=O)c3ccncc3)cc2N1` [Compound 032, N-(2-oxoindolin-6-yl)isonicotinamide] showed an IC50 of 100 to 300 µM.

Turning to `O=C1Cc2ccc(C(=O)NCc3cccnc3)cc2N1` [Compound 033, 2-oxo-N-(pyridin-3-ylmethyl)indoline-6-carboxamide], the IC50 is over 300 µM.

`O=C1Cc2ccc(OC3CCNCC3)cc2N1` [Compound 034, 6-(piperidin-4-yloxy)indolin-2-one] showed an IC50 of over 300 µM.

In turn, `O=C1Cc2ccc(Oc3ccnc(Cl)n3)cc2N1` [Compound 035, 6-((2-chloropyrimidin-4-yl)oxy)indolin-2-one] gave an IC50 of over 300 µM.

With `COC(=O)COc1ccc2c(c1)NC(=O)C2` [Compound 036, methyl 2-((2-oxoindolin-6-yl)oxy)acetate], the IC50 is over 300 µM.

In turn, `O=C1Cc2cccc(-c3ccncc3)c2N1` [Compound 037, 7-(pyridin-4-yl)indolin-2-one] had an IC50 of over 300 µM.

Molecule `O=C1Cc2c(cccc2-c2ccncc2)N1` [Compound 038, 4-(pyridin-4-yl)indolin-2-one] showed an IC50 of over 300 µM.

The molecule `O=C1Cc2cc(-c3ccncc3)ccc2N1` [Compound 039, 5-(pyridin-4-yl)indolin-2-one] showed an IC50 of 100 to 300 µM.

For `COc1cc(-c2ccc3c(c2)CC(=O)N3)ccn1` [Compound 041, 5-(2-methoxypyridin-4-yl)indolin-2-one], the IC50 is over 300 µM.

In turn, `Cc1cc(N)ncc1-c1ccc2c(c1)CC(=O)N2` [Compound 043, 5-(6-amino-4-methylpyridin-3-yl)indolin-2-one] registered an IC50 of 100 to 300 µM.

`Cc1nc(N)ccc1-c1ccc2c(c1)CC(=O)N2` [Compound 044, 5-(6-amino-2-methylpyridin-3-yl)indolin-2-one] registered an IC50 of 100 to 300 µM.

As for `CNc1ccc(-c2ccc3c(c2)CC(=O)N3)cn1` [Compound 046, 5-(6-(methylamino)pyridin-3-yl)indolin-2-one], the IC50 is 100 to 300 µM.

For `CNc1cc(-c2ccc3c(c2)CC(=O)N3)ccn1` [Compound 047, 5-(2-(methylamino)pyridin-4-yl)indolin-2-one], the IC50 is 100 to 300 µM.

Regarding `CC(=O)Nc1ncc(-c2ccc3c(c2)CC(=O)N3)cc1C` [Compound 048, N-(3-methyl-5-(2-oxoindolin-5-yl)pyridin-2-yl)acetamide], the IC50 was 100 to 300 µM.

Regarding `CC(=O)Nc1ccc(-c2ccc3c(c2)CC(=O)N3)c(C)n1` [Compound 049, N-(6-methyl-5-(2-oxoindolin-5-yl)pyridin-2-yl)acetamide], the IC50 was over 300 µM.

Regarding `CC(=O)Nc1cc(C)c(-c2ccc3c(c2)CC(=O)N3)cn1` [Compound 050, N-(4-methyl-5-(2-oxoindolin-5-yl)pyridin-2-yl)acetamide], the IC50 fell in the range of 1 to 100 µM.

`O=C1Cc2cc(-c3ccccc3)ccc2N1` [Compound 051, 5-phenylindolin-2-one] showed an IC50 of over 300 µM.

Turning to `CC(C)(C)OC(=O)N1CCN(C(=O)c2ccc(-c3ccc4c(c3)CC(=O)N4)cc2)CC1` [Compound 052, tert-butyl 4-(4-(2-oxoindolin-5-yl)benzoyl)piperazine-1-carboxylate], the IC50 was over 300 µM.

The molecule `CC(C)(C)OC(=O)N1CCN(C(=O)c2cccc(-c3ccc4c(c3)CC(=O)N4)c2)CC1` [Compound 053, tert-butyl 4-(3-(2-oxoindolin-5-yl)benzoyl)piperazine-1-carboxylate] showed an IC50 of 1 to 100 µM.

Take `O=C1Cc2cc(-c3ccc(C(=O)N4CCNCC4)cc3)ccc2N1` [Compound 054, 5-(4-(piperazine-1-carbonyl)phenyl)indolin-2-one]: the IC50 fell in the range of 100 to 300 µM.

`O=C1Cc2cc(-c3cccc(C(=O)N4CCNCC4)c3)ccc2N1` [Compound 055, 5-(3-(piperazine-1-carbonyl)phenyl)indolin-2-one]: the IC50 was in the range of 100 to 300 µM.

In turn, `O=C1Cc2cc(-c3cccnc3)ccc2N1` [Compound 056, 5-(pyridin-3-yl)indolin-2-one] returned an IC50 of 100 to 300 µM.

With `O=C1Cc2cc(-c3ccc(N4CCCCC4)nc3)ccc2N1` [Compound 057, 5-(6-(piperidin-1-yl)pyridin-3-yl)indolin-2-one], the IC50 is over 300 µM.

`O=C1Cc2cc(C(=O)N3CCCCC3)ccc2N1` [Compound 058, 5-(piperidine-1-carbonyl)indolin-2-one] had an IC50 of 100 to 300 µM.

In the case of `O=C1Cc2cc(NC(=O)c3ccncc3)ccc2N1` [Compound 059, N-(2-oxoindolin-5-yl)isonicotinamide], the IC50 lay within 100 to 300 µM.

On to `CC(=O)N1CCC(C(=O)Nc2ccc3c(c2)CC(=O)N3)CC1` [Compound 060, 1-acetyl-N-(2-oxoindolin-5-yl)piperidine-4-carboxamide], for which the IC50 lay within 100 to 300 µM.

In turn, `O=C1Nc2cc(-c3ccncc3)ccc2C1(F)F` [Compound 061, 3,3-difluoro-6-(pyridin-4-yl)indolin-2-one] showed an IC50 of over 300 µM.

The molecule `CC1(C)C(=O)Nc2cc(-c3ccncc3)ccc21` [Compound 062, 3,3-dimethyl-6-(pyridin-4-yl)indolin-2-one] gave an IC50 of over 300 µM.
